We go through 31 compounds from patent publication US10005739B2, “Quinazolinone and isoquinolinone derivative” (CHUGAI SEIYAKU KABUSHIKI KAISHA, priority 2013, dated 2018).

Sequence of DDR1 (Q08345 19-913): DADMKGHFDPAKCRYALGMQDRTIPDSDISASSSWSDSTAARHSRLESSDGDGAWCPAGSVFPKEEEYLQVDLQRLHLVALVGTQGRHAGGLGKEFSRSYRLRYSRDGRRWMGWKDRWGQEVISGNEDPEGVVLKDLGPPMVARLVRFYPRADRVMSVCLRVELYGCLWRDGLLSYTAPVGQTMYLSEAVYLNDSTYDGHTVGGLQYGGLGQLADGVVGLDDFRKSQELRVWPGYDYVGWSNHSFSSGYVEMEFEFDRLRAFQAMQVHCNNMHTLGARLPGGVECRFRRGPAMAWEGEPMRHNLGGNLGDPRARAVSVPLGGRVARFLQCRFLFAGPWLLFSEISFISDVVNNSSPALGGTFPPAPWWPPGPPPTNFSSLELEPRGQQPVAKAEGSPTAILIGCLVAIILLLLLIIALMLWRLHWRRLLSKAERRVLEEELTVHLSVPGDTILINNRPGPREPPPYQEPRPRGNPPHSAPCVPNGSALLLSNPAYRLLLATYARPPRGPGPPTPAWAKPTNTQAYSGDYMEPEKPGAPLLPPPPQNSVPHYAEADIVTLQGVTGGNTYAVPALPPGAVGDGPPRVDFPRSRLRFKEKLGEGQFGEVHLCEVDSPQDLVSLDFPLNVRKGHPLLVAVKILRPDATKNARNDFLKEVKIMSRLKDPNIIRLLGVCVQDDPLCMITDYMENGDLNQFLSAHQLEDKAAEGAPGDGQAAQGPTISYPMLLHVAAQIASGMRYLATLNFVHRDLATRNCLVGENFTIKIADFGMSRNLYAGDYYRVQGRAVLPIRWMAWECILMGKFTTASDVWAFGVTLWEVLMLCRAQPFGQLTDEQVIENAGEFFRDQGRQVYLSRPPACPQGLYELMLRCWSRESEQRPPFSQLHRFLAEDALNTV

This assay addresses DDR1 (Homo sapiens (Human), UniProt Q08345). As to the kind of experiment: Measurement of DDR1 enzyme inhibitory activity (phosphorylation of biotinylated peptide, time-resolved fluorescence). The assay is classed as biochemical. Conditions: human DDR1 enzyme, biotinylated peptide phosphorylation; read-out: DDR1 enzyme inhibition assay IC50. The protocol:
1. Measurement of DDR1 Enzyme Inhibitory Activity
The DDR1 enzyme inhibitory activity was determined with human DDR1 enzyme prepared using the baculovirus expression system, based on the inhibitory activity of phosphorylation of a biotinylated peptide ([…]) by the enzyme. The phosphorylated biotinylated peptide was detected using time-resolved fluorescence, with an anti-phosphorylated tyrosine antibody conjugated with europium cryptate and streptavidin conjugated with XL665 which is a derivative of allophycocyanin.
For the compound `CCS(=O)(=O)c1ccc(Cl)cc1Nn1cnc2ccc(C)cc2c1=O` [Compound A-51, 3-(5-Chloro-2-ethylsulfonylanilino)-6-methylquinazolin-4-one], the 50% inhibitory concentration (IC50) came out at 110 nM.

Take `CCSc1ccc(Cl)cc1Nn1cnc2ccc(CC)cc2c1=O` [Compound A-52, 3-(5-Chloro-2-ethylsulfanylanilino)-6-ethylquinazolin-4-one]: the IC50 was 200 nM.

Consider `CCc1ccc2ncn(Nc3cc(Cl)ccc3S(=O)(=O)CC)c(=O)c2c1` [Compound A-53, 3-(5-Chloro-2-ethylsulfonylanilino)-6-ethylquinazolin-4-one], for which the half-inhibitory concentration (IC50) is 180 nM.

Take `CCCc1ccc2ncn(Nc3cc(Cl)ccc3SCC)c(=O)c2c1` [Compound A-54, 3-(5-Chloro-2-ethylsulfanylanilino)-6-propylquinazolin-4-one]: the IC50 was 330 nM.

For `CCCc1ccc2ncn(Nc3cc(Cl)ccc3S(=O)(=O)CC)c(=O)c2c1` [Compound A-55, 3-(5-Chloro-2-ethylsulfonylanilino)-6-propylquinazolin-4-one], the IC50 worked out at 240 nM.

Consider `CCSc1ccc(Cl)cc1Nn1cnc2ccc([N+](=O)[O-])cc2c1=O` [Compound A-56, 3-(5-Chloro-2-ethylsulfanylanilino)-6-nitroquinazolin-4-one], for which the concentration for half-maximal inhibition (IC50) was found to be 99 nM.

Take `CCS(=O)(=O)c1ccc(Cl)cc1Nn1cnc2ccc([N+](=O)[O-])cc2c1=O` [Compound A-57, 3-(5-Chloro-2-ethylsulfonylanilino)-6-nitroquinazolin-4-one]: the IC50 was 120 nM.

In the case of `CCS(=O)(=O)c1ccc(Cl)cc1Nn1cnc2ccc(N)cc2c1=O` [Compound A-58, 6-Amino-3-(5-chloro-2-ethylsulfonylanilino)quinazolin-4-one], the IC50 amounted to 4050 nM.

Regarding `CCSc1ccc(Cl)cc1Nn1cnc2ccc(N)cc2c1=O` [Compound A-59, 6-Amino-3-(5-chloro-2-ethylsulfanylanilino)quinazolin-4-one], the half-maximal inhibitory concentration (IC50) was 480 nM.

For the compound `CCSc1ccc(Cl)cc1Nn1cnc2ccc(I)cc2c1=O` [Compound A-60, 3-(5-Chloro-2-ethylsulfanylanilino)-6-iodoquinazolin-4-one], the half-maximal inhibitory concentration (IC50) stood at 220 nM.

For the compound `CCS(=O)(=O)c1ccc(Cl)cc1Nn1cnc2ccc(I)cc2c1=O` [Compound A-61, 3-(5-Chloro-2-ethylsulfonylanilino)-6-iodoquinazolin-4-one], the IC50 worked out at 290 nM.

As for `C=C(C)c1ccc2ncn(Nc3cc(Cl)ccc3S(=O)(=O)CC)c(=O)c2c1` [Compound A-62, 3-(5-Chloro-2-ethylsulfonylanilino)-6-prop-1-en-2-ylquinazolin-4-one], the IC50 stood at 110 nM.

For the compound `CCS(=O)(=O)c1ccc(Cl)cc1Nn1cnc2ccc(C(C)C)cc2c1=O` [Compound A-63, 3-(5-Chloro-2-ethylsulfonylanilino)-6-propan-2-ylquinazolin-4-one], the half-inhibitory concentration (IC50) stood at 200 nM.

On to `C=Cc1ccc2ncn(Nc3cc(Cl)ccc3S(=O)(=O)CC)c(=O)c2c1` [Compound A-64, 3-(5-Chloro-2-ethylsulfonylanilino)-6-ethenylquinazolin-4-one], for which the IC50 was found to be 200 nM.

As for `CC#Cc1ccc2ncn(Nc3cc(Cl)ccc3S(=O)(=O)CC)c(=O)c2c1` [Compound A-65, 3-(5-Chloro-2-ethylsulfonylanilino)-6-prop-1-ynylquinazolin-4-one], the IC50 is 3110 nM.

Regarding `CCS(=O)(=O)c1ccc(Cl)cc1Nn1cnc2ccc(SC)cc2c1=O` [Compound A-66, 3-(5-Chloro-2-ethylsulfonylanilino)-6-methylsulfanylquinazolin-4-one], the IC50 was 52 nM.

For `CSc1ccc(Cl)cc1Nn1cnc2c(Br)cc(C)cc2c1=O` [Compound B-1, 8-Bromo-3-(5-chloro-2-methylsulfanylanilino)-6-methylquinazolin-4-one], the IC50 is 250 nM.

With `Cc1cc(Br)c2ncn(Nc3cc(Cl)ccc3S(C)(=O)=O)c(=O)c2c1` [Compound B-2, 8-Bromo-3-(5-chloro-2-methylsulfonylanilino)-6-methylquinazolin-4-one], the half-inhibitory concentration (IC50) is 160 nM.

As for `CCCSc1ccc(Cl)cc1Nn1cnc2c(Br)cc(C)cc2c1=O` [Compound B-3, 8-Bromo-3-(5-chloro-2-propylsulfanylanilino)-6-methylquinazolin-4-one], the IC50 was 140 nM.

In the case of `CCCS(=O)(=O)c1ccc(Cl)cc1Nn1cnc2c(Br)cc(C)cc2c1=O` [Compound B-4, 8-Bromo-3-(5-chloro-2-propylsulfonylanilino)-6-methylquinazolin-4-one], the IC50 is 110 nM.

Regarding `Cc1cc(Br)c2ncn(Nc3cc(Cl)ccc3Sc3ccccc3)c(=O)c2c1` [Compound B-12, 8-Bromo-3-(5-chloro-2-phenylsulfanylanilino)-6-methylquinazolin-4-one], the IC50 stood at 150 nM.

As to `Cc1cc(Br)c2ncn(Nc3cc(Cl)ccc3[S+]([O-])c3ccccc3)c(=O)c2c1` (stereo not shown) [Compound B-13, 3-[2-(Benzenesulfinyl)-5-chloroanilino]-8-bromo-6-methylquinazolin-4-one], the IC50 turned out to be 740 nM.

Consider `Cc1cc(Br)c2ncn(Nc3cc(Cl)ccc3S(=O)(=O)c3ccccc3)c(=O)c2c1` [Compound B-14, 3-[2-(Benzenesulfonyl)-5-chloroanilino]-8-bromo-6-methylquinazolin-4-one], for which the IC50 amounted to 290 nM.

Turning to `N#Cc1ccc(Sc2ccccc2)c(Nn2cnc3ccc(C(F)(F)F)cc3c2=O)c1` [Compound B-15, 3-[[4-Oxo-6-(trifluoromethyl)quinazolin-3-yl]amino]-4-phenylsulfanylbenzonitrile], the IC50 came out at 860 nM.

As to `N#Cc1ccc(S(=O)(=O)c2ccccc2)c(Nn2cnc3ccc(C(F)(F)F)cc3c2=O)c1` [Compound B-16, 4-(Benzenesulfonyl)-3-[[4-oxo-6-(trifluoromethyl)quinazolin-3-yl]amino]benzonitrile], the IC50 was 1470 nM.

As to `CCCc1ccc(Cl)cc1Nn1cnc2ccc(OC(F)(F)F)cc2c1=O` [Compound B-17, 3-(5-Chloro-2-propylanilino)-6-(trifluoromethoxy)quinazolin-4-one], the IC50 was found to be 410 nM.

On to `CC(C)Cc1ccc(Cl)cc1Nn1cnc2ccc(OC(F)(F)F)cc2c1=O` [Compound B-19, 3-[5-Chloro-2-(2-methylpropyl)anilino]-6-(trifluoromethoxy)quinazolin-4-one], for which the IC50 was found to be 330 nM.

`CCSc1ccc(C#N)cc1Nn1cnc2c(Br)cc(C)cc2c1=O` [Compound C-1, 3-[(8-Bromo-6-methyl-4-oxoquinazolin-3-yl)amino]-4-ethylsulfanylbenzonitrile]: the IC50 came out at 110 nM.

`CCS(=O)(=O)c1ccc(C#N)cc1Nn1cnc2c(Br)cc(C)cc2c1=O` [Compound C-2, 3-[(8-Bromo-6-methyl-4-oxoquinazolin-3-yl)amino]-4-ethylsulfonylbenzonitrile]: the IC50 came to 160 nM.

For the compound `CCSc1ccc(C#N)cc1Nn1cnc2cc(C)c(Br)cc2c1=O` [Compound C-5, 3-[(6-bromo-7-methyl-4-oxoquinazolin-3-yl)amino]-4-ethylsulfanylbenzonitrile], the IC50 turned out to be 130 nM.

For `CCS(=O)(=O)c1ccc(C#N)cc1Nn1cnc2cc(C)c(Br)cc2c1=O` [Compound C-6, 3-[(6-Bromo-7-methyl-4-oxoquinazolin-3-yl)amino]-4-ethylsulfonylbenzonitrile], the IC50 was 250 nM.
